How the values were obtained:
[1] = target: T1, hOATP2B1 (Homo sapiens, UniProt O94956); assay: Cellular uptake assay: intracellular accumulation in HEK293-hOATP2B1 vs HEK293-MOCK cells (HPLC-MS/MS); settings: 0.25 μM, HBSS pH7.4, 37 °C, 20 min
T1 sequence (O94956 1-709): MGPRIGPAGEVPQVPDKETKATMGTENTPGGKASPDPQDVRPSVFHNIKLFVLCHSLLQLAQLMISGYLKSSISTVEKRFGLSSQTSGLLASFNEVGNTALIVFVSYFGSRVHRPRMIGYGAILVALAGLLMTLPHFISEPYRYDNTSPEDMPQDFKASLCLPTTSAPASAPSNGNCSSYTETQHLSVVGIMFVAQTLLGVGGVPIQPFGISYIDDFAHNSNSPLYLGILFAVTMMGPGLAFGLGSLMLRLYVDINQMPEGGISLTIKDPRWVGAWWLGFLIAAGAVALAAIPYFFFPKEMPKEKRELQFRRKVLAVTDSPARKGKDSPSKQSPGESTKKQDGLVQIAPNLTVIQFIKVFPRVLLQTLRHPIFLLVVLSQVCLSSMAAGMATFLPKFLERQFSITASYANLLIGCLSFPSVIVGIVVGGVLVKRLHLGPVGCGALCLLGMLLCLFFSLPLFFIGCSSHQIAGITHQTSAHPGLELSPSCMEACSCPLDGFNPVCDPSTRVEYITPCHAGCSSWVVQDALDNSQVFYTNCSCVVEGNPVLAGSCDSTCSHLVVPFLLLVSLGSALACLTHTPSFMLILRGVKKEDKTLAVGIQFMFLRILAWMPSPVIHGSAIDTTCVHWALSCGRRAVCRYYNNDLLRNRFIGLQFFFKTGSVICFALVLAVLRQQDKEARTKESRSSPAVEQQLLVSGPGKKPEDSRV

[2] = target: T1, hOATP2B1; assay: pH dependent uptake of morphine and M6G in HEK293-hOATP2B1 cells; settings: 0.25 μM, HBSS, 37 °C, 20 min
[3] = substrate: CN1CC[C@]23c4c5ccc(O)c4O[C@H]2[C@@H](O[C@@H]2O[C@H](C(=O)O)[C@@H](O)[C@H](O)[C@H]2O)C=C[C@H]3[C@H]1C5; assay: cells, lysate or membranes named; settings: other: HEK293-hOATP2B1 cells, 0.25 to 100 μM, pH7.4, 37 °C, 20 min, pH 7.4
From the text: V is the initial uptake rate of the substrate (pmol/min/mg protein), S is the substrate concentration in the medium (μM) and Pdif is the uptake clearance corresponding to the passive diffusion and nonspecific binding to the cell surface. Unpaired two-side Student’s t-test was applied for comparisons of two groups’ data. A P value < 0.05 was considered statistically significant.

Row | Molecule | increase of intracellular accumulation in HEK293-hOATP2B1 compared to HEK293-MOCK [1] | also measured
1 | C[C@]12CC[C@@H]3c4ccc(OS(=O)(=O)[O-])cc4CC[C@H]3[C@@H]1CCC2=O.[Na+] [E-3-S, estrone-3-sulfate sodium salt] | 2 to 3 fold | 
2 | CN1CC[C@]23c4c5ccc(O[C@@H]6O[C@H](C(=O)O)[C@@H](O)[C@H](O)[C@H]6O)c4O[C@H]2[C@@H](O)C=C[C@H]3[C@H]1C5 [M3G, morphine-3-glucuronide] | didn’t show any differences | 
3 | CN1CC[C@]23c4c5ccc(O)c4O[C@H]2[C@@H](O[C@@H]2O[C@H](C(=O)O)[C@@H](O)[C@H](O)[C@H]2O)C=C[C@H]3[C@H]1C5 [M6G, morphine-6-glucuronide] | more than 2 fold | concentration in HEK293-hOATP2B1 cells at pH6.0 relative to pH7.4 [2]: 2.05 fold; intracellular accumulation ([1]; HEK293-MOCK cells): 0.26 nM; intracellular accumulation ([1]; HEK293-hOATP2B1 cells): 0.71 nM
4 | CC(C)n1c(/C=C/C(O)CC(O)CC(=O)O)c(-c2ccc(F)cc2)c2ccccc21 (centres unmarked) [fluvastatin] | 2 to 3 fold | 
5 | hOATP2B1 (Homo sapiens) (protein) MGPRIGPAGEVPQVPDKETKATMGTENTPGGKASPDPQDVRPSVFHNIKLFVLCHSLLQLAQLMISGYLKSSISTVEKRFGLSSQTSGLLASFNEVGNTALIVFVSYFGSRVHRPRMIGYGAILVALAGLLMTLPHFISEPYRYDNTSPEDMPQDFKASLCLPTTSAPASAPSNGNCSSYTETQHLSVVGIMFVAQTLLGVGGVPIQPFGISYIDDFAHNSNSPLYLGILFAVTMMGPGLAFGLGSLMLRLYVDINQMPEGGISLTIKDPRWVGAWWLGFLIAAGAVALAAIPYFFFPKEMPKEKRELQFRRKVLAVTDSPARKGKDSPSKQSPGESTKKQDGLVQIAPNLTVIQFIKVFPRVLLQTLRHPIFLLVVLSQVCLSSMAAGMATFLPKFLERQFSITASYANLLIGCLSFPSVIVGIVVGGVLVKRLHLGPVGCGALCLLGMLLCLFFSLPLFFIGCSSHQIAGITHQTSAHPGLELSPSCMEACSCPLDGFNPVCDPSTRVEYITPCHAGCSSWVVQDALDNSQVFYTNCSCVVEGNPVLAGSCDSTCSHLVVPFLLLVSLGSALACLTHTPSFMLILRGVKKEDKTLAVGIQFMFLRILAWMPSPVIHGSAIDTTCVHWALSCGRRAVCRYYNNDLLRNRFIGLQFFFKTGSVICFALVLAVLRQQDKEARTKESRSSPAVEQQLLVSGPGKKPEDSRV |  | Km [3]: 80.31 ± 21.75 µM
